Data on three compounds can be found in patent US10221426B2, “Constitutively active PYR/PYL receptor proteins for improving plant stress tolerance” (The Regents of the University of California, priority 2009, dated 2019).

Assay [1] deals with T1, PYR1-HAB1 (Arabidopsis thaliana, UniProt O49686).
T1 construct: the Pyr1 open reading frame was PCR amplified from genomic DNA; expressed in transfected cells; host or cells: yeast strain Y190
T1 sequence (O49686 1-191): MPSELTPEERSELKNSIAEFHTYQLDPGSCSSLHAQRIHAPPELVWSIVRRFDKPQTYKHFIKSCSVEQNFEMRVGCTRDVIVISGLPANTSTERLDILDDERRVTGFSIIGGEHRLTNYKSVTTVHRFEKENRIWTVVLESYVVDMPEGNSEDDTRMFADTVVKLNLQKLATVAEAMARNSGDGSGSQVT
T1 sequence (Q9CAJ0 23-511 partner): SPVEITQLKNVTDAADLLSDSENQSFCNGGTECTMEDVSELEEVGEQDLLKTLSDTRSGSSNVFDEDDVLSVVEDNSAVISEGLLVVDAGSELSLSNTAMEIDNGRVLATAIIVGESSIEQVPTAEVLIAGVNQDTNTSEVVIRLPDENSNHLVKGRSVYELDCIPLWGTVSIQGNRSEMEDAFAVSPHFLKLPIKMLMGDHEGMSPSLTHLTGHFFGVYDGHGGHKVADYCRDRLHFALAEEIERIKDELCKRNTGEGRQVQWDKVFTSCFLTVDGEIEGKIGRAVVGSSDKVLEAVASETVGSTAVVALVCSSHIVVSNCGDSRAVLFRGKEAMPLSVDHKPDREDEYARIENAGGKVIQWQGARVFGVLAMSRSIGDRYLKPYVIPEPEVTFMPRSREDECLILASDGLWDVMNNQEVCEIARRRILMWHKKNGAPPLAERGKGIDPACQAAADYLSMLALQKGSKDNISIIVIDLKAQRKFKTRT
Nature of the assay: Yeast two-hybrid BD-PYR1 / AD-HAB1 interaction, X-gal stain. Type of assay: cell-based. The conditions noted are these: 10 μM, except epi-brassinolide (50 nM). The method, then:
(§1) Given that PYR1 is necessary for pyrabactin action and is a predicted ligand-binding protein, we hypothesized that pyrabactin agonizes ABA signaling by inducing a protein-protein interaction between PYR1 and a downstream effector. To test this, ˜2 million prey cDNA clones were screened against a PYR1 Y2H bait construct on media containing 10 μM pyrabactin. To create the PYR1 Y2H bait construct, the Pyr1 open reading frame was PCR amplified from genomic DNA and cloned to pGem-T easy vector (Promega). After sequence confirmation, the Pyr1 ORF was then cloned in-frame between EcoRI and SalI sites of the pBD-GAL4 Cam vector (Stratagene) and transformed into yeast strain Y190. For the screen, an etiolated seedling cDNA library (J. Kim, K., Harter, A., Theologis, Proc Natl Acad Sci USA 94, 11786 (Oct. 28, 1997)) (ABRC stock CD4-22) was used. The cDNA library was first converted from phage to plasmid DNA, yielding 7.6×10^7 transformants. Plasmid DNA prepared from library was then used to transform Y190 as described in the GAL4 Two-Hybrid system manual (Stratagene). For each screen, 40 μg of prey plasmid was transformed into 1 ml of competent Y190 cell harboring bait construct and then grown on SD agar plates lacking His, Leu, and Trp, but containing 15 mM 3-AT and 10 μM pyrabactin. After 4 days incubation at 30° C., well-grown colonies were rescued and interactions validated using filter lift assay or chloroform-agarose overlay method and X-Gal staining. This identified two pyrabactin-dependent hits which sequencing determined encoded cDNAs for the PP2C HAB1, a close relative of the well-characterized ABA response factor ABI1 (A. Saez et al., The Plant Journal 37, 354 (2004); N. Leonhardt et al., THE PLANT CELL 16, 596 (2004)). Next, Y2H strains expressing an AD-HAB1 fusion protein and a BD-PYR1 fusion protein were grown on plates and tested for interactions in response to various compounds, all at 10 μM except for epi-brassinolide (50 nM) and dimethyl sulfoxide (DMSO) (carrier solvent, 1%). […] Thus, PYR1 interacts with HAB1 in a (+)-ABA dependent fashion.

Assay [2] concerns the target T2, PYL2-HAB1 (Arabidopsis thaliana, UniProt O80992).
T2 construct: BD-PYR/PYL fusion proteins were constructed in the same manner as for BD-PYR1 above; expressed in transfected cells; host or cells: yeast (Y190, as for BD-PYR1)
T2 sequence (O80992 1-190): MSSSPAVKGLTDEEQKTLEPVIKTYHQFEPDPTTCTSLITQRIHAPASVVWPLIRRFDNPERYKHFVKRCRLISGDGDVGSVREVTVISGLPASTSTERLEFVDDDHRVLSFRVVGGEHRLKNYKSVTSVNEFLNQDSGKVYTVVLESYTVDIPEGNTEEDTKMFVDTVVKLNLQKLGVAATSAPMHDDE
T2 sequence (Q9CAJ0 23-511 partner): T1 sequence (Q9CAJ0 23-511 partner)
Nature of the assay: Yeast two-hybrid BD-PYL2 / AD-HAB1 interaction, X-gal stain. Type of assay: cell-based. As to conditions: 10 μM. How it is done:
as §1, with “fashion. […]” for “fashion.”

For assay [3], the target named is T3, HAB1 in the presence of PYL4 (Arabidopsis thaliana, UniProt O80920).
T3 construct: vector pHB3; made in house
T3 sequence (O80920 1-207): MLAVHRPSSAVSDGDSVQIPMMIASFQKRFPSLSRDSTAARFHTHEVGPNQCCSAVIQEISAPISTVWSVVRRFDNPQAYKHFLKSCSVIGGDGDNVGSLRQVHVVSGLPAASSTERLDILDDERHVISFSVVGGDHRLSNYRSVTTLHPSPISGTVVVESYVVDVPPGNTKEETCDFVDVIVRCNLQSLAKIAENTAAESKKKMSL
T3 sequence (Q9CAJ0 23-511 partner): T1 sequence (Q9CAJ0 23-511 partner)
Nature of the assay: PP2C phosphatase assay (pNPP), GST-HAB1 in the presence of PYL4. Type of assay: biochemical. As to conditions: recombinant PYL4 refolded from inclusion bodies.

The target in assay [4] is T4, PYL1-HAB1 (Arabidopsis thaliana, UniProt Q8VZS8).
T4 construct: BD-PYR/PYL fusion proteins were constructed in the same manner as for BD-PYR1 above; expressed in transfected cells; host or cells: yeast (Y190, as for BD-PYR1)
T4 sequence (Q8VZS8 1-221): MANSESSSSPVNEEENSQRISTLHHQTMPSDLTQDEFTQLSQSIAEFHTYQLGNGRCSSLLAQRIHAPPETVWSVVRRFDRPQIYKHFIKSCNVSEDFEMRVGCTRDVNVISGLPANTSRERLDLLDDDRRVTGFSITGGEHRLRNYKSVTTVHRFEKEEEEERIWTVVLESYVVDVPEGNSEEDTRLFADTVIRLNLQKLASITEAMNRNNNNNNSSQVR
T4 sequence (Q9CAJ0 23-511 partner): T1 sequence (Q9CAJ0 23-511 partner)
Description: Yeast two-hybrid BD-PYL1 / AD-HAB1 interaction, X-gal stain. Type of assay: cell-based. As to conditions: 10 μM. How it is done: Given that PYR1 is necessary for pyrabactin action and is a predicted ligand-binding protein, we hypothesized that pyrabactin agonizes ABA signaling by inducing a protein-protein interaction between PYR1 and a downstream effector. To test this, ˜2 million prey cDNA clones were screened against a PYR1 Y2H bait construct on media containing 10 μM pyrabactin. To create the PYR1 Y2H bait construct, the Pyr1 open reading frame was PCR amplified from genomic DNA and cloned to pGem-T easy vector (Promega). After sequence confirmation, the Pyr1 ORF was then cloned in-frame between EcoRI and SalI sites of the pBD-GAL4 Cam vector (Stratagene) and transformed into yeast strain Y190. For the screen, an etiolated seedling cDNA library (J. Kim, K., Harter, A., Theologis, Proc Natl Acad Sci USA 94, 11786 (Oct. 28, 1997)) (ABRC stock CD4-22) was used. The cDNA library was first converted from phage to plasmid DNA, yielding 7.6×10^7 transformants. Plasmid DNA prepared from library was then used to transform Y190 as described in the GAL4 Two-Hybrid system manual (Stratagene). […] This identified two pyrabactin-dependent hits which sequencing determined encoded cDNAs for the PP2C HAB1, a close relative of the well-characterized ABA response factor ABI1 (A. Saez et al., The Plant Journal 37, 354 (2004); N. Leonhardt et al., THE PLANT CELL 16, 596 (2004)). […]

Turning to `CC1=CC(=O)CC(C)(C)C1(O)/C=C/C(C)=C\C(=O)O` (single isomer, unassigned; (+)) [(+)-ABA], the “PYR1-HAB1 interaction by X-gal stain” value in assay [1] was “strong interactions”. The “PYL2-HAB1 interaction by X-gal stain” value in assay [2] was “respond”. Besides, the “inhibition of HAB1 phosphatase activity in the presence of PYL4” value in assay [3] is on record as “inhibits HAB1 phosphatase activity”.
As for `O=S(=O)(NCc1ccccn1)c1ccc(Br)c2ccccc12` [pyrabactin], the “PYR1-HAB1 interaction by X-gal stain” value in assay [1] is “promotes interactions”. In addition, the “PYL1-HAB1 interaction by X-gal stain” value in assay [4] is on record as “promotes interactions”.
On to `CC1=CC(=O)CC(C)(C)[C@@]1(O)/C=C/C(C)=C\C(=O)O` [ABA, Abscisic acid], for which the “PYL1-HAB1 interaction by X-gal stain” value in assay [4] is listed as “interact with HAB1 in an ABA-stimulated manner”. In assay [2], the “PYL2-HAB1 interaction by X-gal stain” value is “interact with HAB1 in an ABA-stimulated manner”. Also, the “inhibition of HAB1 phosphatase activity in the presence of PYL4” value in assay [3] was “saturable inhibition”.
